Where no end group is shown, it is not given here.
test system: output of cAMP produced by 5×10^-9 M hPTH (1-34) in cultured mouse osteoblast MC3T3-E1; assay: Determination of PTH antagonism: inhibition of cAMP output induced by hPTH (1-34) in cultured mouse osteoblast MC3T3-E1; assay type: cell-based; conditions: Table 3, 50% inhibition of cAMP output by 5×10^-9 M hPTH (1-34), ratio to control [Tyr34]-hPTH (3-34)-NH2 = 1
Procedure: PTH antagonism of the PTHrP derivatives (I) of the present invention was determined on the basis of the output of cAMP, using cultured mouse osteoblast MC3T3-E1.
To a multiwell-culture plate of 12-well were inoculated 1×10^5 cells/well of the cultured cells, and the plate was incubated at 37° C. under 95% air-5% CO2 atmosphere for 3 days after addition of α-modified MEM containing 10% semi-fetal bovine serum as a medium. Then, the medium was exchanged with α-modified MEM containing 1% bovine serum albumin and the cultured cells were incubated for 6 hours. The medium was replaced by α-modified MEM containing various concentrations of the compound of the present invention, 5×10^-9 M hPTH (1-34), 1% bovine serum albumin and 1 mM isobutylmethylxanthin, and the mixture was incubated for 1 hour. The medium was separated from the cells, and the medium was used as a sample for assaying cAMP. The cells were shaken with 90% n-propyl alcohol to extract cAMP according to Yamaguchi et al., J. Biol. Chem., 262, 7711-7718 (1987) for preparing another sample.
Assay of cAMP was performed using a commercially available cAMP-radioimmunoassay kit. […] Compound numbers in the tables correspond to those in Table 2.

| IC50 Ratio | Compound |
| --- | --- |
| 1 | [Tyr^34 ]-hPTH (3-34)-NH2 [(Tyr34)--hPTH(3-34)--NH2, reference compound] |
| 0.003 | CC[C@H](C)[C@H](NC(=O)[C@H](CC(C)C)NC(=O)[C@H](Cc1c[nH]cn1)NC(=O)[C@H](Cc1c[nH]cn1)NC(=O)[C@H](CC(C)C)NC(=O)[C@H](Cc1ccccc1)NC(=O)[C@H](Cc1ccccc1)NC(=O)[C@H](CCCNC(=N)N)NC(=O)[C@H](CCCNC(=N)N)NC(=O)[C@H](CCCNC(=N)N)NC(=O)[C@H](CC(C)C)NC(=O)[C@H](CC(=O)O)NC(=O)[C@H](CCC(N)=O)NC(=O)[C@@H](NC(=O)[C@H](CO)NC(=O)[C@H](CCCCN)NC(=O)CNC(=O)[C@H](CC(C)C)NC(=O)[C@H](CCC(N)=O)NC(=O)[C@H](Cc1c[nH]cn1)NC(=O)[C@H](CCSC)NC(=O)[C@H](CC(C)C)NC(=O)[C@H](CCC(N)=O)NC(=O)[C@@H](NC(=O)[C@H](CCC(=O)O)NC(=O)[C@@H](N)CO)[C@@H](C)CC)[C@@H](C)CC)C(=O)N[C@@H](C)C(=O)N[C@@H](CCC(=O)O)C(=O)N[C@H](C(=O)N[C@@H](Cc1c[nH]cn1)C(=O)N[C@H](C(=O)N[C@@H](C)C(N)=O)[C@@H](C)O)[C@@H](C)CC [Compound No. 2] |
| 0.026 | CC[C@H](C)[C@H](NC(=O)[C@H](CC(C)C)NC(=O)[C@H](Cc1c[nH]cn1)NC(=O)[C@H](Cc1c[nH]cn1)NC(=O)[C@H](CC(C)C)NC(=O)[C@H](Cc1ccccc1)NC(=O)[C@H](Cc1ccccc1)NC(=O)[C@H](CCCNC(=N)N)NC(=O)[C@H](CCCNC(=N)N)NC(=O)[C@H](CCCNC(=N)N)NC(=O)[C@H](CC(C)C)NC(=O)[C@H](CC(=O)O)NC(=O)[C@H](CCC(N)=O)NC(=O)[C@@H](NC(=O)[C@H](CO)NC(=O)[C@H](CCCCN)NC(=O)CNC(=O)[C@H](CCCCN)NC(=O)[C@H](CC(=O)O)NC(=O)[C@H](Cc1c[nH]cn1)NC(=O)[C@H](CCSC)NC(=O)[C@H](CC(C)C)NC(=O)[C@H](CCC(N)=O)NC(=O)[C@@H](N)Cc1ccccc1)[C@@H](C)CC)C(=O)N[C@@H](C)C(=O)N[C@@H](CCC(=O)O)C(=O)N[C@H](C(=O)N[C@@H](Cc1c[nH]cn1)C(=O)N[C@H](C(=O)N[C@@H](C)C(N)=O)[C@@H](C)O)[C@@H](C)CC [Compound No. 8] |

same assay, conditions: Table 4, 50% inhibition of cAMP output by 5×10^-9 M hPTH (1-34), ratio to control Compound No. 15 = 1

| IC50 Ratio | Compound |
| --- | --- |
| 0.765 | CCCCCCCCCCCCCC(=O)N[C@H](C(=O)N[C@@H](CCC(N)=O)C(=O)N[C@@H](CC(C)C)C(=O)N[C@@H](CCSC)C(=O)N[C@@H](Cc1c[nH]cn1)C(=O)N[C@@H](CC(=O)O)C(=O)N[C@@H](CCCCN)C(=O)NCC(=O)N[C@@H](CCCCN)C(=O)N[C@@H](CO)C(=O)N[C@H](C(=O)N[C@@H](CCC(N)=O)C(=O)N[C@@H](CC(=O)O)C(=O)N[C@@H](CC(C)C)C(=O)N[C@@H](CCCNC(=N)N)C(=O)N[C@@H](CCCNC(=N)N)C(=O)N[C@@H](CCCNC(=N)N)C(=O)N[C@@H](Cc1ccccc1)C(=O)N[C@@H](Cc1ccccc1)C(=O)N[C@@H](CC(C)C)C(=O)N[C@@H](Cc1c[nH]cn1)C(=O)N[C@@H](Cc1c[nH]cn1)C(=O)N[C@@H](CC(C)C)C(=O)N[C@H](C(=O)N[C@@H](C)C(=O)N[C@@H](CCC(=O)O)C(=O)N[C@H](C(=O)N[C@@H](Cc1c[nH]cn1)C(=O)N[C@H](C(=O)N[C@@H](C)C(N)=O)[C@@H](C)O)[C@@H](C)CC)[C@@H](C)CC)[C@@H](C)CC)[C@@H](C)CC [Compound No. 22] |
| 1.01 | IQLMHDKGKSIQDLRRRFFLHKLIAEIHTA-NH2 [Compound No. 20] |
| 0.922 | CCCC[C@H](NC(=O)[C@H](CCC(N)=O)NC(=O)[C@@H](N)[C@@H](C)CC)C(=O)N[C@@H](CCSC)C(=O)N[C@@H](Cc1c[nH]cn1)C(=O)N[C@@H](CC(=O)O)C(=O)N[C@@H](CCCCN)C(=O)NCC(=O)N[C@@H](CCCCN)C(=O)N[C@@H](CO)C(=O)N[C@H](C(=O)N[C@@H](CCC(N)=O)C(=O)N[C@@H](CC(=O)O)C(=O)N[C@@H](CC(C)C)C(=O)N[C@@H](CCCNC(=N)N)C(=O)N[C@@H](CCCNC(=N)N)C(=O)N[C@@H](CCCNC(=N)N)C(=O)N[C@@H](Cc1ccccc1)C(=O)N[C@@H](Cc1ccccc1)C(=O)N[C@@H](CC(C)C)C(=O)N[C@@H](Cc1c[nH]cn1)C(=O)N[C@@H](Cc1c[nH]cn1)C(=O)N[C@@H](CC(C)C)C(=O)N[C@H](C(=O)N[C@@H](C)C(=O)N[C@@H](CCC(=O)O)C(=O)N[C@H](C(=O)N[C@@H](Cc1c[nH]cn1)C(=O)N[C@H](C(=O)N[C@@H](C)C(N)=O)[C@@H](C)O)[C@@H](C)CC)[C@@H](C)CC)[C@@H](C)CC [Compound No. 14] |
| 1.17 | CC[C@H](C)[C@H](N)C(=O)N[C@@H](CCC(N)=O)C(=O)N[C@@H](CC(C)C)C(=O)N[C@@H](CCSC)C(=O)N[C@@H](Cc1c[nH]cn1)C(=O)N[C@@H](C)C(=O)N[C@@H](CCCCN)C(=O)NCC(=O)N[C@@H](CCCCN)C(=O)N[C@@H](CO)C(=O)N[C@H](C(=O)N[C@@H](CCC(N)=O)C(=O)N[C@@H](CC(=O)O)C(=O)N[C@@H](CC(C)C)C(=O)N[C@@H](CCCNC(=N)N)C(=O)N[C@@H](CCCNC(=N)N)C(=O)N[C@@H](CCCNC(=N)N)C(=O)N[C@@H](Cc1ccccc1)C(=O)N[C@@H](Cc1ccccc1)C(=O)N[C@@H](CC(C)C)C(=O)N[C@@H](Cc1c[nH]cn1)C(=O)N[C@@H](Cc1c[nH]cn1)C(=O)N[C@@H](CC(C)C)C(=O)N[C@H](C(=O)N[C@@H](C)C(=O)N[C@@H](CCC(=O)O)C(=O)N[C@H](C(=O)N[C@@H](Cc1c[nH]cn1)C(=O)N[C@H](C(=O)N[C@@H](C)C(N)=O)[C@@H](C)O)[C@@H](C)CC)[C@@H](C)CC)[C@@H](C)CC [Compound No. 17] |
| 0.934 | CC[C@H](C)[C@H](NC(C)=O)C(=O)N[C@@H](CCC(N)=O)C(=O)N[C@@H](CC(C)C)C(=O)N[C@@H](CCSC)C(=O)N[C@@H](Cc1c[nH]cn1)C(=O)N[C@@H](CC(=O)O)C(=O)N[C@@H](CCCCN)C(=O)NCC(=O)N[C@@H](CCCCN)C(=O)N[C@@H](CO)C(=O)N[C@H](C(=O)N[C@@H](CCC(N)=O)C(=O)N[C@@H](CC(=O)O)C(=O)N[C@@H](CC(C)C)C(=O)N[C@@H](CCCNC(=N)N)C(=O)N[C@@H](CCCNC(=N)N)C(=O)N[C@@H](CCCNC(=N)N)C(=O)N[C@@H](Cc1ccccc1)C(=O)N[C@@H](Cc1ccccc1)C(=O)N[C@@H](CC(C)C)C(=O)N[C@@H](Cc1c[nH]cn1)C(=O)N[C@@H](Cc1c[nH]cn1)C(=O)N[C@@H](CC(C)C)C(=O)N[C@H](C(=O)N[C@@H](C)C(=O)N[C@@H](CCC(=O)O)C(=O)N[C@H](C(=O)N[C@@H](Cc1c[nH]cn1)C(=O)N[C@H](C(=O)N[C@@H](C)C(N)=O)[C@@H](C)O)[C@@H](C)CC)[C@@H](C)CC)[C@@H](C)CC [Compound No. 21] |
| 3.91 | [Leu^11,D-Trp^12 ]-hPTHrP(7-34)-NH2 [(Leu11,D--Trp12)--hPTHrP(7-34)--NH2, reference compound] |
| 1.97 | CC[C@H](C)[C@H](N)C(=O)N[C@@H](CCC(N)=O)C(=O)N[C@@H](CC(C)C)C(=O)N[C@@H](CCSC)C(=O)N[C@@H](Cc1c[nH]cn1)C(=O)N[C@@H](C)C(=O)N[C@@H](CC(C)C)C(=O)NCC(=O)N[C@@H](CCCCN)C(=O)N[C@@H](CO)C(=O)N[C@H](C(=O)N[C@@H](CCC(N)=O)C(=O)N[C@@H](CC(=O)O)C(=O)N[C@@H](CC(C)C)C(=O)N[C@@H](CCCNC(=N)N)C(=O)N[C@@H](CCCNC(=N)N)C(=O)N[C@@H](CCCNC(=N)N)C(=O)N[C@@H](Cc1ccccc1)C(=O)N[C@@H](Cc1ccccc1)C(=O)N[C@@H](CC(C)C)C(=O)N[C@@H](Cc1c[nH]cn1)C(=O)N[C@@H](Cc1c[nH]cn1)C(=O)N[C@@H](CC(C)C)C(=O)N[C@H](C(=O)N[C@@H](C)C(=O)N[C@@H](CCC(=O)O)C(=O)N[C@H](C(=O)N[C@@H](Cc1c[nH]cn1)C(=O)N[C@H](C(=O)N[C@@H](C)C(N)=O)[C@@H](C)O)[C@@H](C)CC)[C@@H](C)CC)[C@@H](C)CC [Compound No. 18] |
| 0.934 | IQLMHDKGKSIQDLRRRFFLRHLIAEIHTA-NH2 [Compound No. 19] |
| 1.02 | CC[C@H](C)[C@H](NC(=O)[C@H](CC(C)C)NC(=O)[C@H](Cc1c[nH]cn1)NC(=O)[C@H](Cc1c[nH]cn1)NC(=O)[C@H](CC(C)C)NC(=O)[C@H](Cc1ccccc1)NC(=O)[C@H](Cc1ccccc1)NC(=O)[C@H](CCCNC(=N)N)NC(=O)[C@H](CCCNC(=N)N)NC(=O)[C@H](CCCNC(=N)N)NC(=O)[C@H](CC(C)C)NC(=O)[C@H](CC(=O)O)NC(=O)[C@H](CCC(N)=O)NC(=O)[C@@H](NC(=O)[C@H](CO)NC(=O)[C@H](CCCCN)NC(=O)CNC(=O)[C@H](CCCCN)NC(=O)[C@H](CC(=O)O)NC(=O)[C@H](Cc1c[nH]cn1)NC(=O)[C@H](CCSC)NC(=O)[C@H](CC(C)C)NC(=O)[C@H](CCC(N)=O)NC(=O)[C@@H](N)CC(C)C)[C@@H](C)CC)C(=O)N[C@@H](C)C(=O)N[C@@H](CCC(=O)O)C(=O)N[C@H](C(=O)N[C@@H](Cc1c[nH]cn1)C(=O)N[C@H](C(=O)N[C@@H](C)C(N)=O)[C@@H](C)O)[C@@H](C)CC [Compound No. 9] |

Source: US5446130A, “Parathyroid hormone antagonists” (Mitsubishi Kasei Corporation, priority 1990, dated 1995)
